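Interpolation was linear, between the two tested concentrations surrounding the appropriate level; five concentrations were tested over 48 hours in 96-well plates. TGI: concentration producing complete growth inhibition.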
Tests used:
Experiment in all cases: inhibition of tumour cell growth, NCI panel, 48 h
[1] = tested on: M14 melanoma
[2] = tested on: EKVX NSCLC
[3] = tested on: SN12C renal
[4] = tested on: CCRF-CEM leukemia
[5] = tested on: UO-31 renal
[6] = tested on: DLD-1 colon
[7] = tested on: OVCAR-4 ovarian
[8] = tested on: HCC-2998 colon
[9] = tested on: KM20L2 colon
[10] = tested on: HCT-116 colon
[11] = tested on: RPMI-8226 leukemia
[12] = tested on: SF-268 CNS
[13] = tested on: DMS 114 small cell lung
[14] = tested on: MOLT-4 leukemia
[15] = tested on: TK-10 renal
[16] = tested on: SNB-19 CNS
[17] = tested on: SR leukemia
[18] = tested on: OVCAR-8 ovarian
[19] = tested on: NCI-H522 lung
[20] = tested on: M19-MEL melanoma
[21] = tested on: LXFL 529 NSCLC
[22] = tested on: OVCAR-3 ovarian
[23] = tested on: ACHN renal
[24] = tested on: K-562 leukemia
[25] = tested on: SW-620 colon
[26] = tested on: SK-OV-3 ovarian
[27] = tested on: IGROV1 ovarian
[28] = tested on: HT29 colon
[29] = tested on: OVCAR-5 ovarian
[30] = tested on: NCI-H226 lung
[31] = tested on: UACC-62 melanoma
[32] = tested on: HOP-62 NSCLC
[33] = tested on: HOP-92 NSCLC
[34] = tested on: SK-MEL-2 melanoma
[35] = tested on: CAKI-1 renal
[36] = tested on: COLO 205 colon
[37] = tested on: MALME-3M melanoma
[38] = tested on: SF-295 CNS
[39] = tested on: SK-MEL-28 melanoma
[40] = tested on: DMS 273 small cell lung
[41] = tested on: NCI-H460 lung
[42] = tested on: SF-539 CNS
[43] = tested on: HL-60(TB) leukemia
[44] = tested on: HCT-15 colon
[45] = tested on: LOX IMVI melanoma
[46] = tested on: KM12 colon
[47] = tested on: A549 NSCLC
[48] = tested on: MDA-N
[49] = tested on: 786-0 renal
[50] = tested on: MDA-MB-435
[51] = tested on: U251 CNS
[52] = tested on: NCI-H23 lung
[53] = tested on: NCI/ADR-RES ovarian
[54] = tested on: DU-145 prostate
[55] = tested on: MCF7 breast
[56] = tested on: A498 renal
[57] = tested on: T-47D breast
[58] = tested on: UACC-257 melanoma
[59] = tested on: PC-3 prostate
[60] = tested on: HS 578T breast
[61] = tested on: SK-MEL-5 melanoma
[62] = tested on: RXF 393 renal
[63] = tested on: BT-549 breast
[64] = tested on: MDA-MB-231 breast
[65] = tested on: SNB-75 CNS

In the case of COc1ccc(-c2c3ccccc3c(-c3ccc(OCCCCCBr)cc3)c3ccccc23)cc1, the TGI [1] is reported as > 100 µM, the TGI [2] is reported as > 100 µM and the TGI [3] is reported as > 100 µM. The TGI [4] was > 100 µM, the TGI [5] was > 100 µM and the TGI [6] was > 100 µM. For the same molecule, the TGI [7] was > 100 µM, the TGI [8] was > 100 µM and the TGI [9] was > 100 µM. For the same molecule, the TGI [10] was > 100 µM, the TGI [11] was > 100 µM and the TGI [12] was > 100 µM. For the same molecule, the TGI [13] was > 100 µM, the TGI [14] was > 100 µM and the TGI [15] was > 100 µM. For the same molecule, the TGI [16] was > 100 µM, the TGI [17] was > 100 µM and the TGI [18] was > 100 µM. For the same molecule, the TGI [19] was > 100 µM, the TGI [20] was > 100 µM and the TGI [21] was > 100 µM. The TGI [22] was > 100 µM, the TGI [23] was > 100 µM and the TGI [24] was > 100 µM. For the same molecule, the TGI [25] was > 100 µM, the TGI [26] was > 100 µM and the TGI [27] was > 100 µM. The TGI [28] was > 100 µM, the TGI [29] was > 100 µM and the TGI [30] was > 100 µM. For the same molecule, the TGI [31] was > 100 µM, the TGI [32] was > 100 µM and the TGI [33] was > 100 µM. The TGI [34] was > 100 µM, the TGI [35] was > 100 µM and the TGI [36] was > 100 µM. For the same molecule, the TGI [37] was > 100 µM, the TGI [38] was > 100 µM and the TGI [39] was > 100 µM. The TGI [40] was > 100 µM, the TGI [41] was > 100 µM and the TGI [42] was > 100 µM. The TGI [43] was > 100 µM, the TGI [44] was > 100 µM and the TGI [45] was > 100 µM. The TGI [46] was > 100 µM and the TGI [47] was > 100 µM.
For COc1ccc(/C=C/C(=O)C(C)(C)Br)cc1, the TGI [1] was 3.79 µM, the TGI [48] was 39.4 µM and the TGI [49] was 23.7 µM. For the same molecule, the TGI [2] was 31.7 µM, the TGI [3] was 19.6 µM and the TGI [4] was 5.22 µM. For the same molecule, the TGI [5] was 16.6 µM, the TGI [10] was 9.83 µM and the TGI [11] was 14.6 µM. The TGI [50] was 34.3 µM, the TGI [12] was 34.7 µM and the TGI [14] was 18.9 µM. It also gave a TGI [15] of 29.7 µM, a TGI [16] of 88.7 µM and a TGI [51] of 28.6 µM. The TGI [52] was 6.04 µM, the TGI [53] was > 100 µM and the TGI [54] was 37.2 µM. For the same molecule, the TGI [17] was 13.6 µM, the TGI [18] was 11.5 µM and the TGI [19] was 2.92 µM. The TGI [22] was 35 µM, the TGI [23] was 25.7 µM and the TGI [24] was > 100 µM. It also gave a TGI [55] of 19.1 µM, a TGI [25] of 5.37 µM and a TGI [56] of 37.1 µM. It also gave a TGI [57] of 76.2 µM, a TGI [26] of 63.1 µM and a TGI [27] of 5.76 µM. It also gave a TGI [29] of 28.1 µM, a TGI [31] of 27.1 µM and a TGI [32] of 25.3 µM. The TGI [33] was 27.9 µM, the TGI [58] was 30.2 µM and the TGI [34] was 27.5 µM. For the same molecule, the TGI [35] was 35.7 µM, the TGI [36] was 29.5 µM and the TGI [37] was 32 µM. The TGI [59] was 36.9 µM, the TGI [60] was 37.8 µM and the TGI [38] was 43.9 µM. It also gave a TGI [41] of 48 µM, a TGI [42] of 32.2 µM and a TGI [43] of 69.2 µM. It also gave a TGI [61] of 31.4 µM, a TGI [62] of 6.09 µM and a TGI [44] of 7.69 µM. It also gave a TGI [63] of 7.06 µM, a TGI [45] of 23.3 µM and a TGI [46] of 55.1 µM. The TGI [47] was 63.9 µM and the TGI [64] was 63.1 µM.
With COc1ccc(C(=O)c2ccc(-n3cc(/C=C/[N+](=O)[O-])c4ccccc43)cc2)cc1 the TGI [1] was > 74.5 µM, the TGI [48] was > 58.9 µM and the TGI [49] was 11.2 µM. The TGI [2] was 55 µM, the TGI [3] was 42.7 µM and the TGI [4] was > 20.2 µM. The TGI [5] was 37.1 µM, the TGI [7] was > 100 µM and the TGI [8] was 48.9 µM. For the same molecule, the TGI [10] was 28.2 µM, the TGI [11] was > 100 µM and the TGI [50] was 49.3 µM. For the same molecule, the TGI [12] was > 54.1 µM, the TGI [14] was > 100 µM and the TGI [15] was 16.8 µM. For the same molecule, the TGI [16] was > 72.4 µM, the TGI [51] was 24.9 µM and the TGI [52] was 52.4 µM. For the same molecule, the TGI [53] was 56.5 µM, the TGI [54] was > 51.2 µM and the TGI [17] was > 100 µM. The TGI [18] was 45.2 µM, the TGI [19] was 33.8 µM and the TGI [22] was 27.1 µM. For the same molecule, the TGI [65] was > 100 µM, the TGI [23] was 52 µM and the TGI [24] was > 100 µM. The TGI [55] was > 34.2 µM, the TGI [25] was > 100 µM and the TGI [56] was 44.9 µM. For the same molecule, the TGI [57] was 6.41 µM, the TGI [26] was > 71.3 µM and the TGI [27] was 26.2 µM. For the same molecule, the TGI [28] was 57.3 µM, the TGI [29] was > 100 µM and the TGI [30] was > 92.9 µM. It also gave a TGI [31] of 28.5 µM, a TGI [32] of 35.4 µM and a TGI [33] of 34.9 µM. The TGI [58] was 31.3 µM, the TGI [34] was 58 µM and the TGI [35] was > 52.3 µM. The TGI [36] was > 63.5 µM, the TGI [37] was 46.8 µM and the TGI [59] was 49.9 µM. The TGI [60] was 19.9 µM, the TGI [38] was > 100 µM and the TGI [39] was > 89.2 µM. The TGI [41] was > 66.1 µM, the TGI [42] was 31.3 µM and the TGI [43] was 44.6 µM. For the same molecule, the TGI [61] was > 61.9 µM, the TGI [62] was 10.8 µM and the TGI [44] was 41.1 µM. For the same molecule, the TGI [63] was 33.7 µM, the TGI [45] was 19.2 µM and the TGI [46] was 55.2 µM. The TGI [47] was > 100 µM and the TGI [64] was 43.9 µM.
With CCOC(=O)CCCn1cc(C(=O)OC)nn1 the TGI [48] was > 100 µM, the TGI [49] was > 100 µM and the TGI [2] was > 100 µM. The TGI [3] was > 100 µM, the TGI [4] was > 100 µM and the TGI [5] was > 100 µM. The TGI [7] was > 100 µM, the TGI [8] was > 100 µM and the TGI [10] was > 100 µM. The TGI [50] was > 100 µM, the TGI [12] was > 100 µM and the TGI [14] was > 100 µM. The TGI [15] was > 100 µM, the TGI [16] was > 100 µM and the TGI [51] was > 100 µM. For the same molecule, the TGI [52] was > 100 µM, the TGI [53] was > 100 µM and the TGI [54] was > 100 µM. For the same molecule, the TGI [18] was > 100 µM, the TGI [65] was > 100 µM and the TGI [23] was > 100 µM. For the same molecule, the TGI [55] was > 100 µM, the TGI [25] was > 100 µM and the TGI [57] was > 100 µM. For the same molecule, the TGI [27] was > 100 µM, the TGI [28] was > 100 µM and the TGI [30] was > 100 µM. For the same molecule, the TGI [31] was > 100 µM, the TGI [32] was > 100 µM and the TGI [33] was > 100 µM. The TGI [58] was > 100 µM, the TGI [34] was > 100 µM and the TGI [35] was > 100 µM. The TGI [36] was > 100 µM, the TGI [37] was > 100 µM and the TGI [59] was > 100 µM. For the same molecule, the TGI [60] was > 100 µM, the TGI [38] was > 100 µM and the TGI [39] was > 100 µM. The TGI [41] was > 100 µM, the TGI [42] was > 100 µM and the TGI [61] was > 100 µM. The TGI [62] was > 100 µM, the TGI [44] was > 100 µM and the TGI [63] was > 100 µM. The TGI [45] was > 100 µM, the TGI [46] was > 100 µM and the TGI [47] was > 100 µM. The TGI [64] was > 100 µM.

Source: PubChem BioAssay (NCI)
